# Results taken from US7081568B2, “Transgenic plants expressing temporin peptides” (University of Victoria Innovation and Development …, priority 1999, dated 2006).
# Where no end group is shown, it is not given here.
# Tests used:
# Escherichia coli = test: Bactericidal effect of antimicrobial peptides in microtiter plates, colony count; assay type: cell-based; conditions: approximately 1×10^5 bacteria/ml, 4 hours at room temperature, plated on LB, FIG. 2
# Experimental: The cell cultures were incubated at room temperature in the presence of indicated concentration of Dermaseptin B (DSB; 7 μg/ml, 30 μg/ml, and 75 μg/ml), Temporin A (TA; 75 μg/ml, 133 μg/ml, 200 μg/ml) and a combination of Temporin A and Dermaseptin B (133 μg/ml Temporin A and 30 μg/ml Dermaseptin B) for 4 hours, diluted and plated on LB plates. After overnight incubation at 37° C., the colonies were counted and the survival of bacteria was scored.
# (§1) Bactericidal effects of antimicrobial peptides (SEQ ID NO: 34 (MRSA3) and SEQ ID NO: 28 (MRSA2)) were determined against Escherichia coli (FIG. 2) and Erwinia carolovora (FIG. 3) in microtiter plates in a final volume of 220 μl containing approximately 1×10^5 bacteria/ml and indicated concentration of antimicrobial peptides. The cell cultures were incubated at room temperature for 4 hours, diluted and plated on LB plates. After overnight incubation at 37° C. (E. coli) or 28° C. (E. carotovora) the colonies were counted and the survival of bacteria was scored.
# Erwinia carotovora = test: as above; assay type: cell-based; conditions: approximately 1×10^5 bacteria/ml, 4 hours at room temperature, plated on LB, FIG. 3
# Experimental: The cell cultures were incubated at room temperature in the presence of indicated concentration of Dermaseptin B (DSB; 23 μg/ml, 45 μg/ml) or Temporin A (TA; 67 μg/ml, 133 μg/ml) for 4 hours, diluted and plated on LB plates. After overnight incubation at 28° C., the colonies were counted and the survival of bacteria was scored.
# as §1
substance,measurement,setting,value
MRSA2: mature 27 amino acid form of dermaseptin b with a 5 amino acid N-terminal extension MAMWK; called Dermaseptin B in figure legends (MAMWKDVLKKIGTVALHAGKAALGAVADTISQ; ends and bridges not checked),"bactericidal effect, survival of bacteria",Escherichia coli,significant antimicrobial activity
same,"bactericidal effect, survival of bacteria",Erwinia carotovora,significant antimicrobial activity
MRSA3: mature 13 amino acid form of temporin A with a 6 amino acid N-terminal extension MASRHM; called Temporin A in figure legends (MASRHMFLPLIGRVLSGIL; ends and bridges not checked; listed as Rana temporaria),"bactericidal effect, survival of bacteria",Escherichia coli,significant antimicrobial activity
same,"bactericidal effect, survival of bacteria",Erwinia carotovora,significant antimicrobial activity
